Experimental data published in publication PMC12136037, “Type II kinase inhibitors that target Parkinson’s disease–associated LRRK2” (Science Advances, 2025).
“And” between values parts separate entries of the source, which are not always exact repeats. Equal entries are not always repeated. Where two headings read alike, the source gives them in different places.

Experiments:
[1] = biological target: T1, ~100 representative kinases (Homo sapiens, UniProt Q9BVS4); assay: DSF 100 kinase selectivity screen; type: binding; settings: Protein RIOK2; DSF; average of three replicates;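 further: compound tested at 20 µM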
T1 construct: Recombinant protein kinase domains with a concentration of 2 μM
Summary of the method: (§1)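 Each kinase domain, at 2 μM, is mixed with 20 μM test compound and SYPRO Orange in Hepes (20 mM, pH 7.5) with 500 mM NaCl. Temperature is then raised at 3°C/min and fluorescence-monitored unfolding yields the melting temperature change, ΔTm in degrees Celsius.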

[2] = biological target: T2, ~100 representative kinases (Homo sapiens, UniProt Q9UK32); assay: DSF 100 kinase selectivity screen; type: binding; settings: Protein RPS6KA6; DSF; average of three replicates;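 further: compound tested at 20 µM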
T2 construct: Recombinant protein kinase domains with a concentration of 2 μM
Summary of the method: as §1

[3] = biological target: T3, SLK (Homo sapiens, UniProt Q9H2G2); assay: nanoBRET off-target validation; type: cell-based
T3 construct: host or cells: HEK293T (ATCC CRL-3216)
T3 sequence (Q9H2G2 whole entry): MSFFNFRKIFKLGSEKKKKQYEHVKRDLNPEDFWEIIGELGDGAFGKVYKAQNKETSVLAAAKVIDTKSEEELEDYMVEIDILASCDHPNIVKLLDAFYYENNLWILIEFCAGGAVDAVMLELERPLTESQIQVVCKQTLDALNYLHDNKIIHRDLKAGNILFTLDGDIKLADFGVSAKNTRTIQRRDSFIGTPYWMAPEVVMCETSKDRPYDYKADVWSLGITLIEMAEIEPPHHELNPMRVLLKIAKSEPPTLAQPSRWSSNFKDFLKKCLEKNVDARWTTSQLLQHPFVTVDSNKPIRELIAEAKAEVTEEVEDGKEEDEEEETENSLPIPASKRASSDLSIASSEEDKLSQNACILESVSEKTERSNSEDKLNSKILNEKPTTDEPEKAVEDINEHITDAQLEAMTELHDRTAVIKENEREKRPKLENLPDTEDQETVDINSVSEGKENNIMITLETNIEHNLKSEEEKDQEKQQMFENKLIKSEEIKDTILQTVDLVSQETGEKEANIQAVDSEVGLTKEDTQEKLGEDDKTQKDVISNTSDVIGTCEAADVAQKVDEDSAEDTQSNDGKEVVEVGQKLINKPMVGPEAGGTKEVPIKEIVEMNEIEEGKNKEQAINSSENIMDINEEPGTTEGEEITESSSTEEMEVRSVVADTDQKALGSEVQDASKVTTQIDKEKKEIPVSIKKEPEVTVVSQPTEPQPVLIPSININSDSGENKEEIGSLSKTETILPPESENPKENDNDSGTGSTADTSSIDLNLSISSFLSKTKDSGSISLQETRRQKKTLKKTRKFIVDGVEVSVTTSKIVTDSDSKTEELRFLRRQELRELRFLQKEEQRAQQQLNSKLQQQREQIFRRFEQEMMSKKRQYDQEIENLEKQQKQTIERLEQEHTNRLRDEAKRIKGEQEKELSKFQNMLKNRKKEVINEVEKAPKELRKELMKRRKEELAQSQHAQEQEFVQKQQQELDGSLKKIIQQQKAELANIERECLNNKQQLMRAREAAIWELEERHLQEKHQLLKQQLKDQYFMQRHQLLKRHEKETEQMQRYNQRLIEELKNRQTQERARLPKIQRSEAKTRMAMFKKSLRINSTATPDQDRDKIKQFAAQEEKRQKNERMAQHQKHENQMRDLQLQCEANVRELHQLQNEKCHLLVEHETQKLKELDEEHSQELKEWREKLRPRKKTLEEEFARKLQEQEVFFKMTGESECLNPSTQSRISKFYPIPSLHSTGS
Experimental: (§2) The assay was performed as described previously ([61]). In brief, full-length kinases as listed in table S6 were obtained as plasmids cloned in frame with terminal NanoLuc-fusion (gift from Promega; table S6). […] Serially diluted inhibitor and corresponding tracer as listed in table S6 at the Tracer KD concentration taken from TracerDB (tracerdb.org) ([62]) were pipetted into white 384-well plates (Greiner, 781207) using an ECHO acoustic dispenser (Labcyte). The corresponding protein-transfected cells were added and reseeded at a density of 2 × 10^5 cells/ml after trypsinization and resuspending in Opti-MEM without phenol red (Life Technologies). The system was allowed to equilibrate for 3 hours at 37°C/5% CO2 before bioluminescence resonance energy transfer (BRET) measurements. To measure BRET, NanoBRET NanoGlo Substrate + extracellular NanoLuc Inhibitor (Promega, N2540) was added as per the manufacturer’s protocol, and filtered luminescence was measured on a PHERAstar plate reader (BMG Labtech) equipped with a luminescence filter pair [450-nm BP filter (donor) and 610-nm LP filter (acceptor)]. […] (For step-by-step protocol, see www.eubopen.org/sites/www.eubopen.org/files/attachments/2021/NanoBRET-IC50_v1_0.pdf.)

[4] = biological target: T4, DDR2 (Homo sapiens, UniProt Q16832); assay: nanoBRET off-target validation; type: cell-based
T4 construct: host or cells: HEK293T (ATCC CRL-3216)
T4 sequence (Q16832 22-855): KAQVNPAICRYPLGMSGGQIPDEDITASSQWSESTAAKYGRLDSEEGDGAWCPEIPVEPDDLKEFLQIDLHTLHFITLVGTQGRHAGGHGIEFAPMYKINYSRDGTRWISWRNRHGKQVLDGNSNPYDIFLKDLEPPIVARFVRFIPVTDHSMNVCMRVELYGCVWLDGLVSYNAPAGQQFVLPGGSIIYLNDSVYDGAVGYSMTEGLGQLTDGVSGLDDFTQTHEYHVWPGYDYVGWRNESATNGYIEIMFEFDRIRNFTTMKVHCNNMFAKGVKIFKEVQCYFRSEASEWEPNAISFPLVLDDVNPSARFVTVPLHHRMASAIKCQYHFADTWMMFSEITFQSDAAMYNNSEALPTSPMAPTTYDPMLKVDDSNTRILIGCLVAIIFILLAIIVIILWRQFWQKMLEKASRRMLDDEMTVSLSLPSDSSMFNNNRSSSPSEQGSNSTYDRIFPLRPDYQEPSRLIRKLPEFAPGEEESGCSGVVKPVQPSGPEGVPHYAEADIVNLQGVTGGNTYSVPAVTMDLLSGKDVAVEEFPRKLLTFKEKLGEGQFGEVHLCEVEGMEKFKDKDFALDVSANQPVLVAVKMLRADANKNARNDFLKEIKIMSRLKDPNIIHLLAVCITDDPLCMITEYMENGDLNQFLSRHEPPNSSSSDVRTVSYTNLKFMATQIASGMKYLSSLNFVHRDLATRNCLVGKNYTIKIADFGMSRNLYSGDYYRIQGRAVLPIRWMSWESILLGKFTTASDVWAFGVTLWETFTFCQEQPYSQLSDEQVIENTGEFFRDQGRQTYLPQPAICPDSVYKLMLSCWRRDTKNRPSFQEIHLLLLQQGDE
Experimental: as §2

[5] = biological target: T5, 350 wild-type kinases (Homo sapiens, UniProt P49336); assay: 33PanQinase kinome-wide selectivity profile (Reaction Biology); type: biochemical; settings: kinase CDK8/CycC, ATP 1 µM, singlicate
T5 construct: purchased Reaction Biology (assay service)
T5 sequence (P49336 whole entry): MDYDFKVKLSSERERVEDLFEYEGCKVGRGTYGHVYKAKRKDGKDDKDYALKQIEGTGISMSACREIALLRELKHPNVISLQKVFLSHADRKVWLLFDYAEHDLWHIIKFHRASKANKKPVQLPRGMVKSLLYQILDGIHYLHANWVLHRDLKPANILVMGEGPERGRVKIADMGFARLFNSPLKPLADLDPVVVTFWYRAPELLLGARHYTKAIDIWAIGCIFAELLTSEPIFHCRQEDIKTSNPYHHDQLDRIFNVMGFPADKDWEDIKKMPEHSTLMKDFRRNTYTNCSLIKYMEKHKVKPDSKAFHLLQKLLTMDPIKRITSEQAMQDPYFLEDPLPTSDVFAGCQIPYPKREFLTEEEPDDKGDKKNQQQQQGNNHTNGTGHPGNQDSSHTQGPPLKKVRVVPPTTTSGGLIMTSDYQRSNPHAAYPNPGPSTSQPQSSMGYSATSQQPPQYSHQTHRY
Experimental: (§3) Compound RN341 was tested at two concentrations of 1 and 10 μM against a panel of 350 wild-type kinases in the ^33PanQinase assay. The assay was performed by Reaction Biology (www.reactionbiology.com/services/kinase-assays/kinase-panel-screening/).

[6] = biological target: T6, 350 wild-type kinases (Homo sapiens, UniProt P42684); assay: as above; type: biochemical; settings: kinase ABL2, ATP 0,3 µM, singlicate
T6 construct: purchased Reaction Biology (assay service)
T6 sequence (P42684 whole entry): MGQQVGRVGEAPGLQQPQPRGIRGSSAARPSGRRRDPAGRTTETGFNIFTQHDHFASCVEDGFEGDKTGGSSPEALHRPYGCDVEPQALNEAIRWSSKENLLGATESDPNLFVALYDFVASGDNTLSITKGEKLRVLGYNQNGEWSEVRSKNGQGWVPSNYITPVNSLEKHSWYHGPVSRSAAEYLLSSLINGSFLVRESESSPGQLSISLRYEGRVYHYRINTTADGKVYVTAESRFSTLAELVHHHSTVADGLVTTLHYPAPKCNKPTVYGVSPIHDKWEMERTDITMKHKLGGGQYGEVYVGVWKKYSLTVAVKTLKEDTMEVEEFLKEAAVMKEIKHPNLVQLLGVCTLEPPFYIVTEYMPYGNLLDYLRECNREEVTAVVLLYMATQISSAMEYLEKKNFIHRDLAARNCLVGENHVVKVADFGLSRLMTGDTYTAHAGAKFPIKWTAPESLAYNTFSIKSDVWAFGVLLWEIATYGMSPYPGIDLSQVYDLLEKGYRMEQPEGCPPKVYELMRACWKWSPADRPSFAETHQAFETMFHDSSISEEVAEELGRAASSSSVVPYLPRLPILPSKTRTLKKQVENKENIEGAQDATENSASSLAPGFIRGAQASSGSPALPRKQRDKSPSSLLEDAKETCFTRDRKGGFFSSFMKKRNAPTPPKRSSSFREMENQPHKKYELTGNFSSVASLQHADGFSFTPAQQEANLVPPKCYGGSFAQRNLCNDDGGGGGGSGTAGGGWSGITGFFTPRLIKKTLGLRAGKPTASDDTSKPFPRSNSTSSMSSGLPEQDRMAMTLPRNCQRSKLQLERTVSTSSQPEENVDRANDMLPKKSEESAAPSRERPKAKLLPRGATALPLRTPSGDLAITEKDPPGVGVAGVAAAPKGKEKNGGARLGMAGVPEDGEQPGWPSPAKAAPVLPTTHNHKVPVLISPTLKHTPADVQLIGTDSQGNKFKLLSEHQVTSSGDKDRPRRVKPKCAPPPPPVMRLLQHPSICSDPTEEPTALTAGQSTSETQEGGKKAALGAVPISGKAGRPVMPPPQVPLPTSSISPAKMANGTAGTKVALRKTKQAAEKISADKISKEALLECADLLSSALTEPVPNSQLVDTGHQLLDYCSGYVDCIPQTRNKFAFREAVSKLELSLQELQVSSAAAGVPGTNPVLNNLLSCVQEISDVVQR
Experimental: as §3

[7] = biological target: T7, 350 wild-type kinases (Homo sapiens, UniProt O94921); assay: as above; type: biochemical; settings: kinase CDK14/CycY, ATP 0,1 µM, singlicate
T7 construct: purchased Reaction Biology (assay service)
Experimental: as §3

[8] = biological target: T8, 350 wild-type kinases (Homo sapiens, UniProt O14578); assay: as above; type: biochemical; settings: kinase CIT 1-450, ATP 0,1 µM, singlicate
T8 construct: purchased Reaction Biology (assay service)
T8 sequence (O14578 whole entry): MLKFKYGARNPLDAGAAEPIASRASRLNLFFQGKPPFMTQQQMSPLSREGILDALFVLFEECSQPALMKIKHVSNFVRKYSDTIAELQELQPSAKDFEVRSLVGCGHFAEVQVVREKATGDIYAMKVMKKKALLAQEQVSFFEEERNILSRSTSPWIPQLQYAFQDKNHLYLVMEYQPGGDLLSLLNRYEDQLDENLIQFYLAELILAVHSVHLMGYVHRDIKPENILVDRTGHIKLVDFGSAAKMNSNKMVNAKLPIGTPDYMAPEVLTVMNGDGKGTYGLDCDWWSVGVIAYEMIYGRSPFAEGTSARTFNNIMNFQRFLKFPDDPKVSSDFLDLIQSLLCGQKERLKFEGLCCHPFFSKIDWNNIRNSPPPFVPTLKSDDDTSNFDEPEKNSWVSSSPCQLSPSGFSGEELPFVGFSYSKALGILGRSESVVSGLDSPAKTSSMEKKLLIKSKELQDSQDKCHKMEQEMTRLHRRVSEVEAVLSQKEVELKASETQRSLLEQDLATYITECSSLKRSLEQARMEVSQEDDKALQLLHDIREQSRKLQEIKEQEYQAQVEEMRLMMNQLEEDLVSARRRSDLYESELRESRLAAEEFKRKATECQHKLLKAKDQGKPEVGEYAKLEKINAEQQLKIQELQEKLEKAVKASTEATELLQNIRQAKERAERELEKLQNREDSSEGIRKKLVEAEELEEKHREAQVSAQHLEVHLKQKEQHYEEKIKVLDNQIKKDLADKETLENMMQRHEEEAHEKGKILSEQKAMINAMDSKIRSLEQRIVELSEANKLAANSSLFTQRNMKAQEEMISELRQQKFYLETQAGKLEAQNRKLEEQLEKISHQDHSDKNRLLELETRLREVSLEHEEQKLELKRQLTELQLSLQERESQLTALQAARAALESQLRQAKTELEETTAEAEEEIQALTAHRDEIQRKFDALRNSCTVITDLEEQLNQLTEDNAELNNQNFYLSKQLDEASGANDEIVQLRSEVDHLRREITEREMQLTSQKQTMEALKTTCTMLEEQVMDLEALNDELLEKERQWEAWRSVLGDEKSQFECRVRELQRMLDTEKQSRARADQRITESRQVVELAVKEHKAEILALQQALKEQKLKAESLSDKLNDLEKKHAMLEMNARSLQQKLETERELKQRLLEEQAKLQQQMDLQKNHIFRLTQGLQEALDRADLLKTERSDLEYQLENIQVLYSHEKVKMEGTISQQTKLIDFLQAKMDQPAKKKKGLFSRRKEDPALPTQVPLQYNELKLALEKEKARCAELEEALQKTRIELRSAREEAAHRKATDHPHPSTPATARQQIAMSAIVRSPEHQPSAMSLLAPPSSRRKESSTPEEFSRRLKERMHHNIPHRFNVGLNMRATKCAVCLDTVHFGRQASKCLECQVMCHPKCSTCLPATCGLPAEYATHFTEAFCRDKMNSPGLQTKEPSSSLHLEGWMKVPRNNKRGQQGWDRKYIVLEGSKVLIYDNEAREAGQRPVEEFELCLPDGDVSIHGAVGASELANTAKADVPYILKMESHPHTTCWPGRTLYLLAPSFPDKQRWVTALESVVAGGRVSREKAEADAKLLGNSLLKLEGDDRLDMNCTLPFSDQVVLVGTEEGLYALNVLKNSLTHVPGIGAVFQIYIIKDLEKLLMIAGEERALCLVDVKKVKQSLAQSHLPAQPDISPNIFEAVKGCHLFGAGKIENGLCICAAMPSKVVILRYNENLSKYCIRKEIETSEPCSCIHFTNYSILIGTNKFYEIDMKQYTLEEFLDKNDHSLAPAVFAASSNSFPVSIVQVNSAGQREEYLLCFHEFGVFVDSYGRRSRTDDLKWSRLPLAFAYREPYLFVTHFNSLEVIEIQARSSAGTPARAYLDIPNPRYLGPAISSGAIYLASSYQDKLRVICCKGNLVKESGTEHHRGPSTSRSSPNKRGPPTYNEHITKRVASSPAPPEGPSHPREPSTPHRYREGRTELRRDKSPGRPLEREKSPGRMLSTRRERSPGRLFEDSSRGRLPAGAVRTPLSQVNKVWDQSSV
Experimental: as §3

With `Cc1ccc(C(=O)Nc2ccc(CN3CCN(C)CC3)c(C(F)(F)F)c2)cc1C#Cc1c[nH]c2ncnc(N3CCOCC3)c12` [Compound 1] the dTm [1] was 1.81 K and the dTm [2] was -0.02 K.
In the case of `CCSc1nc(NC)c2c(-c3cccc(NC(=O)Nc4cc(C(C)(C)C)nn4-c4ccc(C)cc4)c3)c[nH]c2n1` [Compound 32], the EC50 [3] is reported as greater than 20 µM, the “nanoBRET response normalized to 0% (no tracer) and 100% (no inhibitor) control” value ([3]; SLK, inhibitor 8 nM, two replicates, listed as RN341, 0.008 µM) is reported as 107.417% and the NanoBRET tracer signal (% of no-inhibitor control) at 0.008 µM ([3]; SLK, inhibitor 8 nM, two replicates, read-out: nanoBRET response normalized to 0% (no tracer) and 100% (no inhibitor) control) is reported as 106%. The “nanoBRET response normalized to 0% (no tracer) and 100% (no inhibitor) control” value ([3]; SLK, inhibitor 16 nM, two replicates, listed as RN341, 0.016 µM) was 115.381%, the NanoBRET tracer signal (% of no-inhibitor control) at 0.016 µM ([3]; SLK, inhibitor 16 nM, two replicates, read-out: nanoBRET response normalized to 0% (no tracer) and 100% (no inhibitor) control) was 113% and the NanoBRET tracer signal (% of no-inhibitor control) at 0.05 µM ([3]; SLK, inhibitor 50 nM, two replicates, read-out: nanoBRET response normalized to 0% (no tracer) and 100% (no inhibitor) control) was 102% and 106%. The “nanoBRET response normalized to 0% (no tracer) and 100% (no inhibitor) control” value ([3]; SLK, inhibitor 250 nM, two replicates, listed as RN341, […]) was 119.576%, the NanoBRET tracer signal (% of no-inhibitor control) at […] ([3]; SLK, inhibitor 250 nM, two replicates, read-out: nanoBRET response normalized to 0% (no tracer) and 100% (no inhibitor) control) was 107% and the “nanoBRET response normalized to 0% (no tracer) and 100% (no inhibitor) control” value ([3]; SLK, inhibitor 500 nM, two replicates, listed as RN341, 0.5 µM) was 122.526%. The NanoBRET tracer signal (% of no-inhibitor control) at 0.5 µM ([3]; SLK, inhibitor 500 nM, two replicates, read-out: nanoBRET response normalized to 0% (no tracer) and 100% (no inhibitor) control) was 118%, the “nanoBRET response normalized to 0% (no tracer) and 100% (no inhibitor) control” value ([3]; SLK, inhibitor 2500 nM, two replicates, listed as RN341, […]) was 114.832% and the NanoBRET tracer signal (% of no-inhibitor control) at […] ([3]; SLK, inhibitor 2500 nM, two replicates, read-out: nanoBRET response normalized to 0% (no tracer) and 100% (no inhibitor) control) was 117%. For the same compound, the “nanoBRET response normalized to 0% (no tracer) and 100% (no inhibitor) control” value ([3]; SLK, inhibitor 5000 nM, two replicates, listed as RN341, 5 µM) was 116.499%, the NanoBRET tracer signal (% of no-inhibitor control) at 5 µM ([3]; SLK, inhibitor 5000 nM, two replicates, read-out: nanoBRET response normalized to 0% (no tracer) and 100% (no inhibitor) control) was 105% and the “nanoBRET response normalized to 0% (no tracer) and 100% (no inhibitor) control” value ([3]; SLK, inhibitor 25000 nM, two replicates, listed as RN341, 25 µM) was 86.6362%. The NanoBRET tracer signal (% of no-inhibitor control) at 25 µM ([3]; SLK, inhibitor 25000 nM, two replicates, read-out: nanoBRET response normalized to 0% (no tracer) and 100% (no inhibitor) control) was 83.9%, the EC50 [4] was greater than 20 µM and the remaining tracer BRET signal at 0.008 µM ([4]; DDR2, inhibitor 8 nM, two replicates, read-out: nanoBRET response normalized to 0% (no tracer) and 100% (no inhibitor) control) was 102% and 95.3%. For the same compound, the “nanoBRET response normalized to 0% (no tracer) and 100% (no inhibitor) control” value ([4]; DDR2, inhibitor 16 nM, two replicates, listed as RN341, 0.016 µM) was 102.202%, the remaining tracer BRET signal at 0.016 µM ([4]; DDR2, inhibitor 16 nM, two replicates, read-out: nanoBRET response normalized to 0% (no tracer) and 100% (no inhibitor) control) was 105% and the “nanoBRET response normalized to 0% (no tracer) and 100% (no inhibitor) control” value ([4]; DDR2, inhibitor 50 nM, two replicates, listed as RN341, 0.05 µM) was 98.4821%. The remaining tracer BRET signal at 0.05 µM ([4]; DDR2, inhibitor 50 nM, two replicates, read-out: nanoBRET response normalized to 0% (no tracer) and 100% (no inhibitor) control) was 114%, the “nanoBRET response normalized to 0% (no tracer) and 100% (no inhibitor) control” value ([4]; DDR2, inhibitor 250 nM, two replicates, listed as RN341, […]) was 104.362% and the remaining tracer BRET signal at […] ([4]; DDR2, inhibitor 250 nM, two replicates, read-out: nanoBRET response normalized to 0% (no tracer) and 100% (no inhibitor) control) was 123%. For the same compound, the “nanoBRET response normalized to 0% (no tracer) and 100% (no inhibitor) control” value ([4]; DDR2, inhibitor 500 nM, two replicates, listed as RN341, 0.5 µM) was 117.148%, the remaining tracer BRET signal at 0.5 µM ([4]; DDR2, inhibitor 500 nM, two replicates, read-out: nanoBRET response normalized to 0% (no tracer) and 100% (no inhibitor) control) was 129% and the “nanoBRET response normalized to 0% (no tracer) and 100% (no inhibitor) control” value ([4]; DDR2, inhibitor 2500 nM, two replicates, listed as RN341, […]) was 86.9292%. The remaining tracer BRET signal at […] ([4]; DDR2, inhibitor 2500 nM, two replicates, read-out: nanoBRET response normalized to 0% (no tracer) and 100% (no inhibitor) control) was 103%, the “nanoBRET response normalized to 0% (no tracer) and 100% (no inhibitor) control” value ([4]; DDR2, inhibitor 5000 nM, two replicates, listed as RN341, 5 µM) was 105.865% and the remaining tracer BRET signal at 5 µM ([4]; DDR2, inhibitor 5000 nM, two replicates, read-out: nanoBRET response normalized to 0% (no tracer) and 100% (no inhibitor) control) was 89.9%. For the same compound, the “nanoBRET response normalized to 0% (no tracer) and 100% (no inhibitor) control” value ([4]; DDR2, inhibitor 25000 nM, two replicates, listed as RN341, 25 µM) was 54.8632%, the remaining tracer BRET signal at 25 µM ([4]; DDR2, inhibitor 25000 nM, two replicates, read-out: nanoBRET response normalized to 0% (no tracer) and 100% (no inhibitor) control) was 55.4% and the “Residual activity (% of control), CDK8/CycC” value ([5]; Assay Conc. 1.0E-05 M) was 36 % of control. The “Residual activity (% of control), CDK8/CycC” value ([5]; Assay Conc. 1.0E-06 M) was 91 % of control, the “Residual activity (% of control), ABL2” value ([6]; Assay Conc. 1.0E-05 M) was 73 % of control and the “Residual activity (% of control), ABL2” value ([6]; Assay Conc. 1.0E-06 M) was 107 % of control. The “Residual activity (% of control), CDK14/CycY” value ([7]; Assay Conc. 1.0E-05 M) was 75 % of control, the “Residual activity (% of control), CDK14/CycY” value ([7]; Assay Conc. 1.0E-06 M) was 102 % of control and the “Residual activity (% of control), CIT 1-450” value ([8]; Assay Conc. 1.0E-05 M) was 71 % of control. The “Residual activity (% of control), CIT 1-450” value ([8]; Assay Conc. 1.0E-06 M) was 100 % of control.
